Test results as given in patent US7495104B2, “Quinoline or quinazoline derivatives inhibiting auto-phosphorylation of fibroblast growth factor receptors” (Kirin Beer Kabushiki Kaisha, priority 2001, dated 2009).

molecular target: Bek (Homo sapiens, UniProt P21802); test: Inhibitory activity against Bek-autophosphorylation using ELISA method in OCUM-2MD3 cells; assay type: cell-based; settings: 1 hr with compound, read-out: IC50 (concentration necessary for inhibiting 50% of Bek-phosphorylation)
Sequence (P21802 431-767 limits assumed): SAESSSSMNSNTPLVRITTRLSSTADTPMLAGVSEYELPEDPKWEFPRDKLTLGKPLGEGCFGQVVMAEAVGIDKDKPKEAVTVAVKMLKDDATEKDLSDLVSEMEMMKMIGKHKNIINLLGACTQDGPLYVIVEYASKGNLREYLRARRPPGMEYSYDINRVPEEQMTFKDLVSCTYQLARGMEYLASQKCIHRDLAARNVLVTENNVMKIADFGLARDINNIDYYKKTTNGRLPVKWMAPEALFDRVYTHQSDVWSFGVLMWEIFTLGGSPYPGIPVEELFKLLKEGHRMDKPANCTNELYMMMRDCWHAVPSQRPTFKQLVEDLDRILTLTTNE
In short: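 OCUM-2MD3 human scirrhous gastric cancer cells in 0.1% FCS were exposed to compound for 1 hr at 37° C, then lysed. Phospho-tyrosine proteins were captured with anti-phosphotyrosine antibody, probed with anti-Bek antibody and peroxidase read-out (A450). Positive control (1000 nM) set 0%, untreated 100%; IC50 from multi-level dilutions.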

| IC50 [nM] | SMILES |
| --- | --- |
| < 10 | COc1cc2c(Oc3ccc(NC(=O)NCCC(C)(C)C)c(Cl)c3)ccnc2cc1OCCN1CCN(C)CC1 [Compound 115, 1-(2-Chloro-4-{6-methoxy-7-[2-(4-methyl-piperazin-1-yl)-ethoxy]-quinolin-4-yloxy}-phenyl)-3-(3,3-dimethyl-butyl)-urea] |
| 14.4 | COc1cc2c(Oc3ccc(NC(=O)NCCC(C)(C)C)c(Cl)c3)ccnc2cc1OCCN1C[C@@H](C)O[C@@H](C)C1 [Compound 116, 1-(2-Chloro-4-{7-[2-(2,6-dimethyl-morpholin-4-yl)-ethoxy]-6-methoxy-quinolin-4-yloxy}-phenyl)-3-(3,3-dimethyl-butyl)-urea] |
| 178 | COc1cc2c(Oc3ccc(NC(=O)NCCC(C)(C)C)c(Cl)c3)ccnc2cc1OCCN1CCC(C)CC1 [Compound 117, 1-(2-Chloro-4-{6-methoxy-7-[2-(4-methyl-piperidin-1-yl)-ethoxy]-quinolin-4-yloxy}-phenyl)-3-(3,3-dimethyl-butyl)-urea] |
| < 10 | COc1cc2c(Oc3ccc(NC(=O)NCCC(C)(C)C)cc3)ccnc2cc1OCCN1CC(C)OC(C)C1 (stereo not shown) [Compound 119, 1-(3,3-Dimethyl-butyl)-3-(4-{7-[2-(2,6-dimethyl-morpholin-4-yl)-ethoxy]-6-methoxy-quinolin-4-yloxy}-phenyl)-urea] |
| 21 | COc1cc2c(Oc3ccc(NC(=O)NCCC(C)(C)C)cc3)ccnc2cc1OCCN1CC(C)CC(C)C1 (stereo not shown) [Compound 120, 1-(3,3-Dimethyl-butyl)-3-(4-{7-[2-(3,5-dimethyl-piperidin-1-yl)-ethoxy]-6-methoxy-quinolin-4-yloxy}-phenyl)-urea] |
| 88 | COc1cc2c(Oc3ccc(NC(=O)NCCC(C)(C)C)cc3)ccnc2cc1OCCN1CCC(c2ccccc2)CC1 [Compound 121, 1-(3,3-Dimethyl-butyl)-3-(4-{6-methoxy-7-[2-(4-phenyl-piperidin-1-yl)-ethoxy]-quinolin-4-yloxy}-phenyl)-urea] |
| 151 | COc1cc2c(Oc3ccc(NC(=O)NCCC(C)(C)C)cc3)ccnc2cc1OCCN1CCC(Cc2ccccc2)CC1 [Compound 122, 1-(4-{7-[2-(4-Benzyl-piperidin-1-yl)-ethoxy]-6-methoxy-quinolin-4-yloxy}-phenyl)-3-(3,3-dimethyl-butyl)-urea] |
| < 10 | COc1cc2c(Oc3ccc(NC(=O)NCCC(C)(C)C)cc3)ccnc2cc1OCCN1CCC(N2CCCCC2)CC1 [Compound 123, 1-{4-[7-(2-[1,4′]bipiperidineyl-1′-yl-ethoxy)-6-methoxy-quinolin-4-yloxy]-phenyl}-3-(3,3-dimethyl-butyl)-urea] |
| < 10 | COc1cc2c(Oc3ccc(NC(=O)NCCC(C)(C)C)cc3)ccnc2cc1OCCN1CCC(N2CCCC2)CC1 [Compound 124, 1-(3,3-Dimethyl-butyl)-3-(4-{6-methoxy-7-[2-(4-pyrrolidin-1-yl-piperidin-1-yl)-ethoxy]-quinolin-4-yloxy}-phenyl)-urea] |
| 13 | COc1cc2c(Oc3ccc(NC(=O)NCCC(C)(C)C)c(Cl)c3)ccnc2cc1OCCN1CC(C)OC(C)C1 (stereo not shown) [Compound 125, 1-(2-Chloro-4-{7-[2-(2,6-dimethyl-morpholin-4-yl)-ethoxy]-6-methoxy-quinolin-4-yloxy}-phenyl)-3-(3,3-dimethyl-butyl)-urea] |
| 13.3 | COc1cc2c(Oc3ccc(NC(=O)NCCC(C)(C)C)cc3Cl)ccnc2cc1OCCN1CCOCC1 [Compound 126, 1-{3-Chloro-4-[6-methoxy-7-(2-morpholin-4-yl-ethoxy)-quinolin-4-yloxy]-phenyl}-3-(3,3-dimethyl-butyl)-urea] |
| 9.4 | COc1cc2c(Oc3ccc(NC(=O)NCCC(C)(C)C)cc3Cl)ccnc2cc1OCCN1CC(C)OC(C)C1 (stereo not shown) [Compound 127, 1-(3-Chloro-4-{7-[2-(2,6-dimethyl-morpholin-4-yl)-ethoxy]-6-methoxy-quinolin-4-yloxy}-phenyl)-3-(3,3-dimethyl-butyl)-urea] |
| < 10 | COc1cc2c(Oc3ccc(NC(=O)NCCC(C)(C)C)cc3F)ccnc2cc1OCCN1CC(C)OC(C)C1 (stereo not shown) [Compound 128, 1-(3,3-Dimethyl-butyl)-3-(4-{7-[2-(2,6-dimethyl-morpholin-4-yl)-ethoxy]-6-methoxy-quinolin-4-yloxy}-3-fluoro-phenyl)-urea] |
| 48.1 | COc1cc2c(Oc3ccc(NC(=O)NCCC(C)(C)C)cc3F)ccnc2cc1OCCN1CCCCC1 [Compound 129, 1-(3,3-Dimethyl-butyl)-3-{3-fluoro-4-[6-methoxy-7-(2-piperidin-1-yl-ethoxy)-quinolin-4-yloxy]-phenyl}-urea] |
| 162 | COc1cc2c(Oc3ccc(NC(=O)NCCC(C)(C)C)c(F)c3)ccnc2cc1OCCN1C(C)CCCC1C (stereo not shown) [Compound 130, 1-(3,3-Dimethyl-butyl)-3-(4-{7-[2-(2,6-dimethyl-piperidin-1-yl)-ethoxy]-6-methoxy-quinolin-4-yloxy}-2-fluoro-phenyl)-urea] |
| 161 | COc1cc2c(Oc3ccc(NC(=O)NCCC(C)(C)C)c(F)c3)ccnc2cc1OCCN1C(C)(C)CCCC1(C)C [Compound 131, 1-(3,3-Dimethyl-butyl)-3-(2-fluoro-4-{6-methoxy-7-[2-(2,2,6,6-tetramethyl-piperidin-1-yl)-ethoxy]-quinolin-4-yloxy}-phenyl)-urea] |
| 146 | COc1cc2c(Oc3ccc(NC(=O)NCCC(C)(C)C)cc3F)ccnc2cc1OCCN1C(C)CCCC1C (stereo not shown) [Compound 132, 1-(3,3-Dimethyl-butyl)-3-(4-{7-[2-(2,6-dimethyl-piperidin-1-yl)-ethoxy]-6-methoxy-quinolin-4-yloxy}-3-fluoro-phenyl)-urea] |

| IC50 [nM] | SMILES |
| --- | --- |
| 9.2 | COc1cc2c(Oc3ccc(NC(=O)NC4CCCC(C)(C)C4)c(F)c3)ccnc2cc1OCCN1CCOCC1 (stereo not shown) [Compound 133, 1-(3,3-Dimethyl-cyclohexyl)-3-{2-fluoro-4-[6-methoxy-7-(2-morpholin-4-yl-ethoxy)-quinolin-4-yloxy]-phenyl}-urea] |
| 11.8 | COc1cc2c(Oc3ccc(NC(=O)NC4CCCC(C)(C)C4)c(F)c3)ccnc2cc1OCCN1CC(C)OC(C)C1 (stereo not shown) [Compound 134, 1-(3,3-Dimethyl-cyclohexyl)-3-(4-{7-[2-(2,6-dimethyl-morpholin-4-yl)-ethoxy]-6-methoxy-quinolin-4-yloxy}-2-fluoro-phenyl)-urea] |
| 56.2 | COc1cc2nccc(Oc3ccc(NC(=O)NCCC(C)(C)C)c(C)c3)c2cc1OC [Compound 136, 1-[4-(6,7-Dimethoxy-quinolin-4-yloxy)-2-methyl-phenyl]-3-(3,3-dimethyl-butyl)-urea] |
| 66.7 | COc1cc2nccc(Oc3ccc(NC(=O)NCCC(C)(C)C)cc3C)c2cc1OC [Compound 137, 1-[4-(6,7-Dimethoxy-quinolin-4-yloxy)-3-methyl-phenyl]-3-(3,3-dimethyl-butyl)-urea] |
| 317 | COc1cc(Oc2ccnc3cc(OC)c(OC)cc23)ccc1NC(=O)NCCC(C)(C)C [Compound 138, 1-[4-(6,7-Dimethoxy-quinolin-4-yloxy)-2-methoxy-phenyl]-3-(3,3-dimethyl-butyl)-urea] |
| 1160 | COc1cc2nccc(Oc3ccc(NC(=O)NCCC(C)(C)C)cc3OC)c2cc1OC [Compound 139, 1-[4-(6,7-Dimethoxy-quinolin-4-yloxy)-3-methoxy-phenyl]-3-(3,3-dimethyl-butyl)-urea] |
| 172 | COc1cc2nccc(Oc3c(Cl)cc(NC(=O)NCCC(C)(C)C)cc3Cl)c2cc1OC [Compound 140, 1-[3,5-Dichloro-4-(6,7-dimethoxy-quinolin-4-yloxy)-phenyl]-3-(3,3-dimethyl-butyl)-urea] |
| 58.6 | COc1cc2nccc(Oc3ccc(NC(=O)NCCC(C)(C)C)c(C)c3C)c2cc1OC [Compound 141, 1-[4-(6,7-Dimethoxy-quinolin-4-yloxy)-2,3-dimethyl-phenyl]-3-(3,3-dimethyl-butyl)-urea] |
| 265 | COc1cc2nccc(Oc3cc(C)c(NC(=O)NCCC(C)(C)C)cc3C)c2cc1OC [Compound 142, 1-[4-(6,7-Dimethoxy-quinolin-4-yloxy)-2,5-dimethyl-phenyl]-3-(3,3-dimethyl-butyl)-urea] |
| 192 | COc1cc2nccc(Oc3ccc(NC(=O)NC(C)(C)CC(C)(C)C)cc3)c2cc1OC [Compound 143, 1-[4-(6,7-Dimethoxy-quinolin-4-yloxy)-phenyl]-3-(1,1,3,3-tetramethyl-butyl)-urea] |
| 202 | COc1cc2nccc(Oc3ccc(NC(=O)NC(C)(C)CC(C)(C)C)c(Cl)c3)c2cc1OC [Compound 144, 1-[2-Chloro-4-(6,7-dimethoxy-quinolin-4-yloxy)-phenyl]-3-(1,1,3,3-tetramethyl-butyl)-urea] |
| 654 | COc1cc2c(Oc3ccc(NC(=O)NCCC(C)(C)C)cc3)ccnc2cc1OCCCBr [Compound 147, 1-{4-[7-(3-Bromo-propoxy)-6-methoxy-quinolin-4-yloxy]-phenyl}-3-(3,3-dimethyl-butyl)-urea] |
| 218 | COc1cc2nccc(Oc3ccc(NC(=O)NCCC(C)(C)CC(C)(C)C)c(F)c3)c2cc1OC [Compound 149, 1-[4-(6,7-Dimethoxy-quinolin-4-yloxy)-2-fluoro-phenyl]-3-(3,3,5,5-tetramethyl-hexyl)-urea] |
| 63.8 | COc1cc2nccc(Oc3ccc(NC(=O)NCCC(C)(C)C)c(C(F)(F)F)c3)c2cc1OC [Compound 150, 1-[4-(6,7-Dimethoxy-quinolin-4-yloxy)-2-trifluoromethyl-phenyl]-3-(3,3-dimethyl-butyl)-urea] |
| 221 | COc1cc2c(Oc3ccc(NC(=O)NCCC(C)(C)C)cc3)ccnc2cc1OCCCCl [Compound 151, 1-{4-[7-(3-Chloro-propoxy)-6-methoxy-quinolin-4-yloxy]-phenyl}-3-(3,3-dimethyl-butyl)-urea] |
| 25 | COc1cc2c(Oc3ccc(NC(=O)NCCC(C)(C)C)cc3)ccnc2cc1OCCCl [Compound 152, 1-{4-[7-(2-Chloro-ethoxy)-6-methoxy-quinolin-4-yloxy]-phenyl}-3-(3,3-dimethyl-butyl)-urea] |

| SMILES | IC50 [nM] |
| --- | --- |
| COc1cc2c(Oc3ccc(NC(=O)NCCC(C)(C)C)cc3)ccnc2cc1OCCCCBr [Compound 148, 1-{4-[7-(4-Bromo-butoxy)-6-methoxy-quinolin-4-yloxy]-phenyl}-3-(3,3-dimethyl-butyl)-urea] | 1670 |
